# Test results taken from patent US4847300A, “Use of alpha-2I selective adrenergic receptor agonists in memory enhancement” (priority 1986, dated 1989).
# Read-outs that look alike come from different tables or passages of the source.
# Key:
# alpha-2R subtype [1] = conditions: cited from earlier work
# alpha-2I subtype = conditions: second figure of the alpha-2R/alpha-2I Ki ratio; cited from earlier work
# aged monkeys [2] = test: blood pressure study in awake chaired aged monkeys; format: in vivo, rhesus monkeys; conditions: for drop in systolic blood pressure: at the high doses optimal for memory improvement; for Systolic Blood Pressure, change vs placebo control: mean
# Method: In order to measure blood pressure in the awake, behaving monkey, three aged animals were adapted to primate chair restraint for several weeks. Blood pressure was measured using a pediatric digital blood pressure monitor. Each day the animals were […] immediately injected with the drug or saline. Fifteen minutes later, three blood pressure measurements were taken. […] Following memory testing, three more blood pressure measurements were taken before the monkey was returned to its home cage. The average blood pressure response before and after memory testing was calculated; drug response was compared to the previous response on saline Drug administration was initiated only after a stable blood pressure baseline was apparent.
# aged monkeys [3] = test: variable delayed response task (spatial working memory) in aged monkeys; conditions: for average optimal dose for improving memory: aged monkeys; for average optimal dose for improving memory / Optimal dose: equimolar clonidine dose; for Delayed Response Performance (% change from placebo control): mean; for aged monkeys with improved memory: applicants' experiments; for Percent Improvement: at individual optimal dose; for Optimal dose: i.m.; for dose range in which effective: memory improvement, summary statement
# alpha-2R subtype [4] = conditions: alpha-2R vs alpha-2I
# Description: Receptor binding data provides evidence for two distinct alpha-2 receptor sub-types, C. […] One subtype binds with high affinity to the antagonist idazoxan, and is referred to as the "alpha-2I subtype"; the other subtype binds with high affinity to both idazoxan and to the antagonist, rauwolscine, and is referred to as the "alpha-2R subtype".
# aged monkeys [5] = conditions: early experiments, Science 230, 1273 (1985); cited from earlier work
# aged monkeys [6] = conditions: for Sedation Score (0-IV): mean
# Description: Sedation was rated using a 5 point scale where 0=normal level of arousal, I=quiet, II=sedated, III=intermittent sleeping and IV=too sedated to test.
# Korsakoff patients = conditions: about 0.01 to 0.02 mg/kg/day for two weeks; cited from earlier work
# aged monkeys [7] = conditions: 0.01 to 0.09 mg/kg; background; cited from earlier work
# rhesus monkeys = conditions: catecholamine-depleted association cortex; cited from earlier work
# Alzheimer patients = conditions: acute administration; study was terminated; cited from earlier work
# [8] = clinical blood pressure studies; cited from earlier work
# [9] = dose .0001 mg/kg i.m. (equimolar clonidine dose)
# [10] = dose .001 mg/kg i.m. (equimolar clonidine dose)
# [11] = dose .01 mg/kg i.m. (equimolar clonidine dose)
# [12] = dose .05 mg/kg i.m. (equimolar clonidine dose)
smiles,measurement,setting,value
C=CCN1CCc2nc(N)sc2CC1 [BHT-920],Ki,alpha-2R subtype [1],62.2 nM
same,Ki,alpha-2I subtype,138 nM
same,drop in systolic blood pressure,aged monkeys [2],greater than 50 mm Hg
same,"Systolic Blood Pressure, change vs placebo control",aged monkeys [2]; dose .0001 mg/kg i.m.,-9 mm Hg
same,"Systolic Blood Pressure, change vs placebo control",aged monkeys [2]; dose .001 mg/kg i.m.,-8 mm Hg
same,"Systolic Blood Pressure, change vs placebo control",aged monkeys [2]; dose .01 mg/kg i.m.,-37 mm Hg
same,"Systolic Blood Pressure, change vs placebo control",aged monkeys [2]; dose .05 mg/kg i.m.,> -50 mm Hg
same,hypotensive effects compared with the other agonists,"aged monkeys [2]; monkey #445, FIG. 3",very similar to those of clonidine
same,average optimal dose for improving memory,aged monkeys [3],70 µg/kg
same,Delayed Response Performance (% change from placebo control),aged monkeys [3]; [9],0%
same,Delayed Response Performance (% change from placebo control),aged monkeys [3]; [10],-3%
same,Delayed Response Performance (% change from placebo control),aged monkeys [3]; [11],+9%
same,Delayed Response Performance (% change from placebo control),aged monkeys [3]; [12],+8%
same,Delayed Response Performance (% change from placebo control),aged monkeys [3]; dose .08 mg/kg i.m. (equimolar clonidine dose),+15%
same,selectivity for the alpha-2R subtype,alpha-2R subtype [4],two times more selective
"Clc1cccc(Cl)c1N=C1NCCN1 [Clonidine, clonidine]",aged monkeys with improved memory,aged monkeys [5],5/5
same,Sedation Score (0-IV),aged monkeys [6]; dose .0001 mg/kg i.m.,0
same,Sedation Score (0-IV),aged monkeys [6]; dose .001 mg/kg i.m.,0
same,Sedation Score (0-IV),aged monkeys [6]; dose .01 mg/kg i.m.,I
same,Sedation Score,"aged monkeys [6]; monkey #121, at individual optimal dose",0
same,Sedation Score,"aged monkeys [6]; monkey #445, at individual optimal dose",I
same,Sedation Score,"aged monkeys [6]; monkey #449, at individual optimal dose",0
same,Ki,alpha-2R subtype [1],27.7 nM
same,Ki,alpha-2I subtype,38.1 nM
same,effect on memory performance,Korsakoff patients,improved memory performance
same,side effects at memory-enhancing doses,aged monkeys [7],profound hypotension and sedation
same,effect on behavioral deficit in spatial delayed alternation,rhesus monkeys,pharmacologically reversed
same,drop in systolic blood pressure,aged monkeys [2],greater than 50 mm Hg
same,"Systolic Blood Pressure, change vs placebo control",aged monkeys [2]; dose .0001 mg/kg i.m.,-23 mm Hg
same,"Systolic Blood Pressure, change vs placebo control",aged monkeys [2]; dose .001 mg/kg i.m.,-8 mm Hg
same,"Systolic Blood Pressure, change vs placebo control",aged monkeys [2]; dose .01 mg/kg i.m.,-32 mm Hg
same,"Systolic Blood Pressure, change vs placebo control",aged monkeys [2]; dose .05 mg/kg i.m.,> -50 mm Hg
same,average optimal dose for improving memory,aged monkeys [3],50 µg/kg
same,aged monkeys with improved memory,aged monkeys [3],8
same,effect on memory,aged monkeys [3]; dose 0.0001 to 0.01 mg/kg,often impaired memory
same,Delayed Response Performance (% change from placebo control),aged monkeys [3]; [9],-6%
same,Delayed Response Performance (% change from placebo control),aged monkeys [3]; [10],+3%
same,Delayed Response Performance (% change from placebo control),aged monkeys [3]; [11],+6%
same,Delayed Response Performance (% change from placebo control),aged monkeys [3]; [12],+12%
same,Percent Improvement,aged monkeys [3]; monkey #107,27%
same,Optimal dose,aged monkeys [3]; monkey #107,10 µg/kg
same,Percent Improvement,aged monkeys [3]; monkey #113,30%
same,Optimal dose,aged monkeys [3]; monkey #113,50 µg/kg
same,Percent Improvement,aged monkeys [3]; monkey #121,17%
same,Optimal dose,aged monkeys [3]; monkey #121,5 µg/kg
same,Percent Improvement,aged monkeys [3]; monkey #124,23%
same,Optimal dose,aged monkeys [3]; monkey #124,40 µg/kg
same,Percent Improvement,aged monkeys [3]; monkey #343,30%
same,Optimal dose,aged monkeys [3]; monkey #343,200 µg/kg
same,Percent Improvement,aged monkeys [3]; monkey #444,25%
same,Optimal dose,aged monkeys [3]; monkey #444,30 µg/kg
same,Percent Improvement,aged monkeys [3]; monkey #445,18%
same,Optimal dose,aged monkeys [3]; monkey #445,40 µg/kg
same,Percent Improvement,aged monkeys [3]; monkey #446,17%
same,Optimal dose,aged monkeys [3]; monkey #446,80 µg/kg
same,Percent Improvement,aged monkeys [3]; monkey #447,23%
same,Optimal dose,aged monkeys [3]; monkey #447,60 µg/kg
same,Percent Improvement,aged monkeys [3]; monkey #448,30%
same,Optimal dose,aged monkeys [3]; monkey #448,70 µg/kg
same,Percent Improvement,aged monkeys [3]; monkey #449,23%
same,Optimal dose,aged monkeys [3]; monkey #449,1 µg/kg
same,side effects,Alzheimer patients,severe hypotension and sedation
"N=C(N)N/N=C/c1c(Cl)cccc1Cl [Guanabenz, guanabenz]",Sedation Score (0-IV),aged monkeys [6]; dose .00000005 mg/kg i.m.,0
same,Sedation Score (0-IV),aged monkeys [6]; dose .00001 mg/kg i.m.,0
same,Sedation Score (0-IV),aged monkeys [6]; dose .0001 mg/kg i.m.,0
same,Sedation Score (0-IV),aged monkeys [6]; dose .001 mg/kg i.m.,0
same,Sedation Score (0-IV),aged monkeys [6]; dose .01 mg/kg i.m.,0
same,Sedation Score (0-IV),aged monkeys [6]; dose .05 mg/kg i.m.,I
same,Ki,alpha-2R subtype [1],36.7 nM
same,Ki,alpha-2I subtype,5.3 nM
same,hypotensive effects compared with the other agonists,"aged monkeys [2]; rhesus monkey, in vivo","more hypotensive side effects than guanfacine, but fewer side effects than clonidine"
same,Delayed Response Performance (% change from placebo control),aged monkeys [3]; dose .00000005 mg/kg i.m. (equimolar clonidine dose),+8%
same,Delayed Response Performance (% change from placebo control),aged monkeys [3]; dose .00001 mg/kg i.m. (equimolar clonidine dose),-1%
same,Delayed Response Performance (% change from placebo control),aged monkeys [3]; [9],+1%
same,Delayed Response Performance (% change from placebo control),aged monkeys [3]; [10],-2%
same,Delayed Response Performance (% change from placebo control),aged monkeys [3]; [11],+7%
same,Delayed Response Performance (% change from placebo control),aged monkeys [3]; [12],+7%
same,dose range in which effective,aged monkeys [3],picogram/kg range
same,doses at which memory improved,"aged monkeys [3]; monkey #445, FIG. 3",5e-05 to 10 µg/kg
"N=C(N)NC(=O)Cc1c(Cl)cccc1Cl [Guanfacine, guanfacine]",potency relative to clonidine,[8],1/10
same,Sedation Score,"aged monkeys [6]; rhesus monkey, in vivo",0
same,sedation scores,"aged monkeys [6]; rhesus monkey, in vivo",0
same,Ki,alpha-2R subtype [1],340 nM
same,Ki,alpha-2I subtype,22.6 nM
same,"Systolic Blood Pressure, change vs placebo control",aged monkeys [2]; dose .0001 mg/kg i.m.,+3 mm Hg
same,"Systolic Blood Pressure, change vs placebo control",aged monkeys [2]; dose .001 mg/kg i.m.,+6 mm Hg
same,"Systolic Blood Pressure, change vs placebo control",aged monkeys [2]; dose .01 mg/kg i.m.,-11 mm Hg
same,"Systolic Blood Pressure, change vs placebo control",aged monkeys [2]; dose .05 mg/kg i.m.,-21 mm Hg
same,average change in systolic blood pressure,"aged monkeys [2]; low, memory-improving doses",+6 mm Hg
same,average optimal dose for improving memory,aged monkeys [3],about 0.001 mg/kg
same,aged monkeys with improved memory,aged monkeys [3],11/11
same,Delayed Response Performance (% change from placebo control),aged monkeys [3]; [9],+9%
same,Delayed Response Performance (% change from placebo control),aged monkeys [3]; [10],+10%
same,Delayed Response Performance (% change from placebo control),aged monkeys [3]; [11],+10%
same,Delayed Response Performance (% change from placebo control),aged monkeys [3]; [12],-6%
same,duration of memory effects,aged monkeys [3]; low doses,up to four days
same,dose range in which effective,aged monkeys [3],nanogram/kg range
same,Percent Improvement,aged monkeys [3]; monkey #107,20%
same,Optimal dose,aged monkeys [3]; monkey #107,10 µg/kg
same,Percent Improvement,aged monkeys [3]; monkey #113,23%
same,Optimal dose,aged monkeys [3]; monkey #113,0.001 µg/kg
same,Percent Improvement,aged monkeys [3]; monkey #121,10%
same,Optimal dose,aged monkeys [3]; monkey #121,0.001 µg/kg
same,Percent Improvement,aged monkeys [3]; monkey #124,18%
same,Optimal dose,aged monkeys [3]; monkey #124,0.1 µg/kg
same,Percent Improvement,aged monkeys [3]; monkey #343,13%
same,Optimal dose,aged monkeys [3]; monkey #343,0.01 µg/kg
same,Percent Improvement,aged monkeys [3]; monkey #444,13%
same,Optimal dose,aged monkeys [3]; monkey #444,10 µg/kg
same,Percent Improvement,aged monkeys [3]; monkey #445,20%
same,Optimal dose,aged monkeys [3]; monkey #445,1 µg/kg
same,Percent Improvement,aged monkeys [3]; monkey #446,10%
same,Optimal dose,aged monkeys [3]; monkey #446,10 µg/kg
same,Percent Improvement,aged monkeys [3]; monkey #447,20%
same,Optimal dose,aged monkeys [3]; monkey #447,1 µg/kg
same,Percent Improvement,aged monkeys [3]; monkey #448,23%
same,Optimal dose,aged monkeys [3]; monkey #448,0.01 µg/kg
same,Percent Improvement,aged monkeys [3]; monkey #449,20%
same,Optimal dose,aged monkeys [3]; monkey #449,1 µg/kg
N[C@@H](Cc1ccc(O)c(O)c1)C(=O)O [L-dopa],effect on behavioral deficit in spatial delayed alternation,rhesus monkeys,pharmacologically reversed
CN1CCc2cccc3c2[C@H]1Cc1ccc(O)c(O)c1-3 [apomorphine],effect on behavioral deficit in spatial delayed alternation,rhesus monkeys,pharmacologically reversed
